pIC50: −log10 of the molar value. Counter-ions that a name gives are not always drawn.
Target: T1, iNOS in human cartilage explants (Homo sapiens, UniProt P35228)
T1 construct: from tissue; host or cells: human cartilage explants stimulated with recombinant human IL-1β
Experiment: Human cartilage explant assay (IL-1β-induced nitrite production)
Assay type: cell-based
Conditions: inhibition of nitrite production, IL-1β-stimulated explants; averages across all experiments and all lots
Protocol: Human Cartilage Explant Assay
Cartilage was cut into small explants of approximately 15-45 mg in weight and one or two explants per well are placed into either 96 or 48 well culture plates with 200-500 μL of culture media per well. The culture media was either a custom modification of Minimum Essential Medium(Eagle) with Earle's salts (GibcoBRL) prepared without L-Arginine, without L-Glutamine and without phenol red or a custom modification of serumless Neuman and Tytell (GibcoBRL) medium prepared without L-arginine, without insulin, without ascorbic acid, without L-glutamine and without phenol red. Both are supplemented before use with 100 μM L-Arginine (Sigma), 2 mM L-glutamine, 1×HL-1 supplement (BioWhittaker), 50 mg/ml ascorbic acid (Sigma) and 150 pg/ml recombinant human IL-1β (RD Systems) to induce nitric oxide synthase. Compounds are then added in 10 μL aliquots and the explants incubated at 37° C. with 5% CO2 for 18-24 hours. The day old supernatant is then discarded and replaced with fresh culture media containing recombinant human IL-1β and compound and incubated for another 20-24 hours. This supernatant is analyzed for nitrite with a fluorometric assay (Misko et al, Anal. Biochem., 214, 11-16, 1993). […] IC50 values (Table 1) are determined from plotting the percent inhibition of nitrite production at six different concentrations of inhibitor.

Row | SMILES | pIC50
1 | CC(=N)NCCSCC(C)(N)C(=O)O (stereo not drawn) [Example 16, S-[2-(1-Iminoethylamino)ethyl]-2-methyl-(D/L)-cysteine, bistrifluoroacetate] | 6.15
2 | CC(=N)NCCSC[C@](C)(N)C(=O)O [Example 1, S-[2-[(1-Iminoethyl)amino]ethyl]-2-methyl-L-cysteine, dihydrochloride] | 6.15
